“Also recorded” adds a separate entry of the source.
Legend:
Assay type in all cases: in vivo, mouse
[1] = test system: CrT KO mice; test: Western blotting of dissected brain tissue after DCE treatment
Protocol: Western blotting was used to detect the abundance of PLCB1 and the two inhibitors of NFkB, IKBα and IKBβ, in the dissected brain tissue. Briefly, brain tissue was homogenized in freshly prepared lysis buffer containing 20 mM Trizma-Base, 150 mM NaCl, pH 7.4 (Sigma-Aldrich, Saint-Quentin Fallavier, France) and supplemented with 1% Triton X-100, 4% of complete Protease Inhibitor Cocktail and 20% of a mix of anti-phosphatase inhibitors using a Precellys Evolution tissue homogenizer. The samples were then centrifuged first at 2500×g (15 min) and then at 10 000×g (20 min) on homogenates to produce lysate for electrophoresis. Proteins (10 to 20 μg) and protein standard in Laemmli buffer were loaded on 4%-15% CRITERION TGX STAIN-FREE protein gel in running buffer TGS 1×(all from Bio-Rad, Marnes-la-Coquette, France) and transferred to a 0.2 μm PVDF membrane with the Trans-Blot Turbo RTA Midi Transfer Kit (Bio-Rad, Marnes-la-Coquette, France). Membranes were blocked for 30 min in 5% low-fat milk in TBS-Tween 20 0.1% at room temperature. Blots were probed with specific primary antibodies overnight at 4° C. and detected by horseradish peroxidase secondary antibodies diluted 1:5 000 or 1:50 000 in 5% low-fat milk in TBS-Tween 20 0.1% at room temperature. For protein detection, membranes were exposed to the ECL prime Western blotting system (Amersham, UK) or Clarity western ECL substrate in a chemidoc touch imaging system for a measurable exposure time (Bio-Rad, Marnes-la-Coquette, France) and quantified with Image Lab Software (Bio-Rad, Marnes-la-Coquette, France). The following antibodies and dilutions were used: anti-PLCB1 (1/1000, Abcam, ab182359), anti-IKBα (1/500, Cell Signaling Technology, 4812S), anti-IKBβ (1/500, Cell Signaling Technology, 15519S), anti-PSD95 (1/2000, Merck, MABN68), and anti-tubulin (1/2000, Sigma-Aldrich, T6199), anti-KIF1A (1/1000, Abcam, ab180153).
(§1) DCE was intranasally administered (Ullio-Gamboa G, et al. Dodecyl creatine ester-loaded nanoemulsion as a promising therapy for creatine transporter deficiency. Nanomedicine 14, 1579-1593 (2019)) to Slc6a8^−/y for 30 days, once a day at 4 mg/g of body weight, whilst the control groups were wild-type (WT) and vehicle-treated (Veh) Slc6a8^−/y mice, at N=8/group. Cognitive performance was evaluated using the object recognition test, the Y-maze, and the Morris water maze (MWM). Then, proteomics was performed on four different brain regions: cortex, hippocampus, cerebellum and brainstem; and the key protein abundances were correlated with behavioral performance, identifying several mechanistic pathways.

[2] = test system: CrT KO mice; test: Y maze spontaneous alternation in DCE-treated CrT KO mice
Protocol: (§2) Treatment continued during behavioral testing, which took two weeks, for a total of 30 days of treatment. The testing order for behavioral assessment performed in the same mice consisted of: object recognition test (ORT) 24 h (3 days), Y maze (1 day), Morris water maze (MWM) with hidden platform (7 days).
Mice were placed in the center of the maze and movement was recorded for 8 min. The number of arm entries (all four limbs within the arm) and the number of triads (three arm entries) were video-recorded in order to calculate the alternation percentage defined as the number of triads divided by the number of possible alternations (total arm entries minus 2) and then multiplying by 100.
as §1

[3] = test system: CrT KO mice; test: Morris water maze (MWM) in DCE-treated CrT KO mice; conditions: DCE intranasal 4 mg/g once a day; hidden platform, 7 days
Protocol: as §2
Mice were trained for 4 trials per day and for a total of 7 days in a circular water tank (diameter, 120 cm; height, 40 cm), filled with water (23° C.) rendered opaque by the addition of a non-toxic white paint to a depth of 25 cm. […] Mice were allowed up to 60 s to reach the escape platform, and their swimming paths were automatically recorded by the Noldus Ethovision system. On the last trial of the last training day, mice received a probe trial, during which the escape platform was removed from the tank and the swimming paths were recorded over 60 s while mice searched for the missing platform
DCE was intranasally administered (Ullio-Gamboa G, et al. Dodecyl creatine ester-loaded nanoemulsion as a promising therapy for creatine transporter deficiency. Nanomedicine 14, 1579-1593 (2019)) to Slc6a8^−/y for 30 days, once a day at 4 mg/g of body weight, whilst the control groups were wild-type (WT) and vehicle-treated (Veh) Slc6a8^−/y mice, at N=8/group. Cognitive performance was evaluated using the object recognition test, the Y-maze, and the Morris water maze (MWM). […]

[4] = test system: CrT KO mice; test: Object recognition test (ORT) in DCE-treated CrT KO mice
Protocol: as §2
The day before testing, mice were familiarized with the empty arena for 10 min. The object recognition test (ORT), which is based on the spontaneous tendency of rodents to spend more time exploring a novel object than a familiar one, measures short- and long-term memory and consists of a sample and a testing phase. During the sample phase, mice were placed in the arena with two identical objects placed in diagonally opposite corners of the arena (about 6 cm from the walls) for 10 min. The test phase was 24 hours after the sample phase. Mice were returned to the arena with an identical copy of one of the familiar objects and a new object placed in the same position. The mice explored the objects for 5 min.
as §1

[5] = test system: CrT KO mice; test: Label-free shotgun proteomics of brain regions after DCE treatment
Protocol: Total protein (15 μg) was extracted from different brain regions and mixed with lithium dodecyl sulfate lysis buffer (Invitrogen) and incubated at 99° C. for 5 min, and then separated by a short electrophoresis migration (5 min) at 200 V on NuPAGE 4-12% Bis-Tris gel with MES/SDS 1× (Invitrogen) as running buffer. Gels were stained with SimplyBlue SafeStain (Thermo) for 5 min followed by an overnight wash in water with gentle agitation. The polyacrylamide band containing the whole proteome from each sample was excised and treated as recommended (Hartmann E M, Armengaud J. N-terminomics and proteogenomics, getting off to a good start. Proteomics 14, 2637-2646 (2014)). Proteins were in-gel proteolyzed with trypsin gold (Promega) in the presence of 0.01% of Protease Max surfactant (Promega) at 50° C. for 60 min. From the resulting peptide fraction (50 μL), a volume of 1 μL corresponding to approximately 300 ng of peptides was analyzed by liquid chromatography-tandem mass spectrometry (LC-MS/MS) using an Ultimate 3000 nano-LC system coupled to a Q-Exactive HF mass spectrometer (Thermo Scientific) operated as described previously (Hartmann E M, Armengaud J. N-terminomics and proteogenomics, getting off to a good start. Proteomics 14, 2637-2646 (2014)). Peptides were loaded on a reverse-phase PepMap 100 C18 μ-precolumn (5 μm, 100 Å, 300 μm i.d.×5 mm, Thermo Fisher), and then resolved on a nanoscale PepMap 100 C18 nanoLC column (3 μm, 100 Å, 75 μm i.d.×50 cm, Thermo Fisher) at a flow rate of 0.2 μL·min^−1 using a 90-min gradient (4% B for 0 to 3 min, 4-25% B from 3 to 78 min and 25-40% B from 78 to 93 min) with mobile phase A corresponding to 0.1% HCOOH/100% H2O and mobile phase B corresponding to 0.1% HCOOH/80% CH3CN/20% H2O). The mass spectrometer was operated in Top20 mode, with a scan range of MS acquisition from 350 to 1800 m/z and selection and fragmentation using a 10 s dynamic exclusion time for the 20 most abundant precursor ions. Only ion precursors with a 2+ or 3+ charge were selected for High-energy collisional dissociation (HCD) fragmentation performed at a normalized collision energy of 27 eV.
MS/MS spectra were assigned using the Mascot Daemon software version 2.6.1 (Matrix Science) and the Mus musculus SwissProt database comprising 17,096 protein sequences. Peptide tolerance, MS/MS fragment tolerance, and the maximum of missed cleavages were set at 5 ppm, 0.02 D and 2, respectively. Carbamidomethylation of cysteine was considered as fixed modification. Oxidation of methionine was taken into account as variable modification. Peptides identified at a p-value≤0.05 in homology threshold mode and proteins identified with at least two distinct peptides were selected (false discovery rate below 1%).
In-house script was constructed, using R programming language, to identify the differentially expressed proteins between the […] four different regions of the brain: cortex, cerebellum, hippocampus and brainstem. Initially, the proteomics data were normalized using the Variance Stabilizing Normalization (Motakis E S, Nason G P, Fryzlewicz P, Rutter G A. Variance stabilization and normalization for one-color microarray data using a data-driven multiscale approach. Bioinformatics 22, 2547-2553 (2006)). Proteins with at least 10 MS/MS spectra across all conditions were retained. Unsupervised variation filter was then applied to the proteomics data (Hamoudi R A, et al. Differential expression of NF-kappaB target genes in MALT lymphoma with and without chromosome translocation: insights into molecular mechanism. Leukemia 24, 1487-1497 (2010)) where any 8 samples with MS/MS detected protein were included. […]

CCCCCCCCCCCCOC(=O)CN(C)C(=N)N [DCE, dodecyl creatine ester]
PLCB1 protein abundance by Western blot ([1]; brain cortex, DCE-treated CrT KO mice, p=0.0004): significant increase; also recorded: significantly increased
IκBα protein level by Western blot ([1]; brain cortex, DCE-treated CrT KO mice, p=0.008): reconstituted; also recorded: promotes
postsynaptic density protein PSD95 by Western blot ([1]; brain cortex, p=0.0096): significantly upregulated
KIF1A by Western blot (overexpressed in vehicle CrT KO mice) ([1]; cerebellum): rescued this overexpression
PLCB1 protein abundance by Western blot ([1]; cerebellum, DCE-treated CrT KO mice): significantly increased
KIF1A by Western blot (overexpressed in vehicle CrT KO mice) ([1]; cortex): rescued this overexpression
Pro-BDNF/BDNF level by Western blot ([1]; cortex, p=0.0043): higher
KIF1A by Western blot (overexpressed in vehicle CrT KO mice) ([1]; hippocampus): rescued this overexpression
PLCB1 protein abundance by Western blot ([1]; hippocampus, DCE-treated CrT KO mice): significantly increased
spontaneous alternation performance in Y-maze vs vehicle CrT KO mice ([2]; DCE intranasal 4 mg/g once a day): higher; also recorded: significantly improved
alternation rate in Y-maze vs WT mice ([2]; DCE-treated CrT KO mice, P=0.058): did not differ
median alternation rate in Y-maze ([2]; DCE-treated CrT KO mice, vehicle 48%, WT 62%, P=0.058 vs WT): 86%
memory abilities in MWM [3]: No positive effects
time observing the novel object, DCE-treated vs vehicle-treated CrT KO mice ([4]; ORT 24 h, DCE intranasal once a day 4 mg/g body weight, 30 days, N=8/group, one-way ANOVA p<0.01, Tukey p<0.05): more time
median time (novel object) of DCE-treated group as % of the WT median value ([4]; ORT, DCE intranasal 4 mg/g once a day): 96%
observation time of novel object compared with WT mice ([4]; ORT, DCE intranasal 4 mg/g once a day, p=0.406): no difference
object discrimination index / percent time with the novel object (FIG. 2A, 2B) ([4]; ORT, WT and DCE-treated, but not vehicle-treated KO mice): preference for the novel object
presynaptic IgSF8 protein abundance ([5]; brain cortex): significantly upregulated
ANK1 abundance (downregulated in vehicle CrT KO mice), effect of DCE treatment ([5]; cerebellum): significantly rescued
ANXA5 abundance (downregulated in vehicle CrT KO mice), effect of DCE treatment ([5]; cerebellum): significantly rescued
FABP7 abundance (upregulated in CrT KO mice), DCE-treated CrT KO vs WT ([5]; cerebellum): unchanged
LMNB1 abundance (upregulated in CrT KO mice), DCE-treated CrT KO vs WT ([5]; cerebellum): unchanged
MeCP2 abundance (downregulated in vehicle CrT KO mice), effect of DCE treatment ([5]; cerebellum): significantly rescued
PURB abundance (upregulated in CrT KO mice), DCE-treated CrT KO vs WT ([5]; cerebellum): unchanged
DCLK1 abundance (upregulated in CrT KO mice), DCE-treated CrT KO vs WT ([5]; cortex): unchanged
NCAM1 abundance (upregulated in CrT KO mice), DCE-treated CrT KO vs WT ([5]; cortex): unchanged
PI4KA abundance (upregulated in CrT KO mice), DCE-treated CrT KO vs WT ([5]; cortex): unchanged
PLCB1 abundance (downregulated in vehicle CrT KO mice), effect of DCE treatment ([5]; cortex): significantly rescued
PURB abundance (upregulated in CrT KO mice), DCE-treated CrT KO vs WT ([5]; cortex): unchanged
IGSF8 abundance (downregulated in vehicle CrT KO mice), effect of DCE treatment ([5]; hippocampus): significantly rescued
KIF1A abundance (upregulated in CrT KO mice), DCE-treated CrT KO vs WT ([5]; hippocampus): unchanged
L1CAM abundance (upregulated in CrT KO mice), DCE-treated CrT KO vs WT ([5]; hippocampus): unchanged
NCAM1 abundance (upregulated in CrT KO mice), DCE-treated CrT KO vs WT ([5]; hippocampus): unchanged

From patent publication US20250314665A1, “BIOMARKERS FOR CEREBRAL METABOLIC DISORDERS, AND DIAGNOSTIC METHODS USING THEREOF” (COMMISSARIAT A L'ENERGIE ATOMIQUE ET AUX ENERGIES …, priority 2022, published 2025)
